Reference: PMC8619001, “Discovery of New Ginsenol-Like Compounds with High Antiviral Activity” (Molecules, 2021)

Test system: A/Vladivostok/2/2009 (H1N1)
Test: microbe, parasite or virus in culture
Format: cell-based
Details: Influenza A virus, H1N1, MDCK, 72 h, read-out: IC50 H1N1

CC(=O)NC12CC(C)(C)C3CCC1(C)CCCC32C [Compound 1a, (1S,3aR,4R,7aS)-N-(2,2,4,7a-tetramethyloctahydro-1,4-etanoinden-3a-yl)-acetamide]
IC50: 380 ± 51 nM
